target: CDK2/Cyclin E1 (Homo sapiens (Human), UniProt P24941); experiment: CDK2/Cyclin E1 HTRF Enzyme Activity Assay; assay type: biochemical; conditions: 1 mM ATP
Procedure: Example A. CDK2/Cyclin E1 HTRF Enzyme Activity Assay
CDK2/Cyclin E1 enzyme activity assays utilize full-length human CDK2 co-expressed as N-terminal GST-tagged protein with FLAG-Cyclin E1 in a baculovirus expression system (Carna Product Number 04-165). Assays are conducted in white 384-well polystyrene plates in a final reaction volume of 8 μL. CDK2/Cyclin E1 (0.25 nM) is incubated with compounds (40 nL serially diluted in DMSO) in the presence of ATP (50 μM or 1 mM) and 50 nM ULight™-labeled eIF4E-binding protein 1 (THR37/46) peptide (PerkinElmer) in assay buffer (containing 50 mM HEPES pH 7.5, 1 mM EGTA, 10 mM MgCl2, 2 mM DTT, 0.05 mg/ml BSA, and 0.01% Tween 20) for 60 minutes at room temperature. The reactions are stopped by the addition of EDTA and Europium-labeled anti-phospho-4E-BP 1 antibody (PerkinElmer), for a final concentration of 15 mM and 1.5 nM, respectively. HTRF signals are read after 1 hour at room temperature on a PHERAstar FS plate reader (BMG Labtech). Data is analyzed with IDBS XLFit and GraphPad Prism 5.0 software using a three or four parameter dose response curve to determine IC50 for each compound.

SMILES	IC50 [nM]
CCC(C(F)F)N1C(=O)C(C)(C)Cc2cnc(NC3CCN(S(C)(=O)=O)CC3)nc21 (racemic) [Example 4, 8-(1,1-difluorobutan-2-yl)-6,6-dimethyl-2-((1-(methylsulfonyl)piperidin-4-yl)amino)-5,8-dihydropyrido[2,3-d]pyrimidin-7(6H)-one]	10 to 100
CC1(C)Cc2cnc(NC3CCN(S(C)(=O)=O)CC3)nc2N(C2CCOC2)C1=O (racemic) [Example 6, 6,6-dimethyl-2-((1-(methylsulfonyl)piperidin-4-yl)amino)-8-(tetrahydrofuran-3-yl)-5,8-dihydropyrido[2,3-d]pyrimidin-7(6H)-one]	100 to 500
CC1(C)Cc2cnc(Nc3ccc(S(N)(=O)=O)cc3)nc2N(C2CCCC2)C1=O [Example 1, 4-((8-cyclopentyl-6,6-dimethyl-7-oxo-5,6,7,8-tetrahydropyrido[2,3-d]pyrimidin-2-yl)amino)benzenesulfonamide]	≤ 10
CC1(C)Cc2cnc(NC3CCN(S(C)(=O)=O)CC3)nc2N(C2CCCC2)C1=O [Example 2, 8-cyclopentyl-6,6-dimethyl-2-((1-(methylsulfonyl)piperidin-4-yl)amino)-5,8-dihydropyrido[2,3-d]pyrimidin-7(6H)-one]	≤ 10
CC1(C)Cc2cnc(NC3CCN(S(C)(=O)=O)CC3)nc2N(c2ccccc2)C1=O [Example 3, 6,6-dimethyl-2-((1-(methylsulfonyl)piperidin-4-yl)amino)-8-phenyl-5,8-dihydropyrido[2,3-d]pyrimidin-7(6H)-one]	100 to 500
Cn1nccc1CN1C(=O)C(C)(C)Cc2cnc(NC3CCN(S(C)(=O)=O)CC3)nc21 [Example 5, 6,6-dimethyl-8-((1-methyl-1H-pyrazol-5-yl)methyl)-2-((1-(methylsulfonyl)piperidin-4-yl)amino)-5,8-dihydropyrido[2,3-d]pyrimidin-7(6H)-one]	100 to 500

From US11066404B2, “Dihydropyrido[2,3-d]pyrimidinone compounds as CDK2 inhibitors” (Incyte Corporation, priority 2018, dated 2021)
